Data from patent US11773085B2 (Foghorn Therapeutics Inc., priority 2018, dated 2023).

Tests used:
[1] = system: synovial sarcoma cell lines (SYO1, HS-SY-II, and ASKA); assay: Growth of synovial sarcoma cell lines, crystal violet staining at day 14; type: cell-based; settings: for inhibition of cell growth: SYO1, HS-SY-II, ASKA, treated daily, day 14, FIG. 8
Protocol: (§1) Cells were seeded into 6-well or 12-well plates and were treated daily with a BRD9 degrader (Compound 1), a bromo-domain BRD9 binder (Compound 2), E3 ligase binder (lenalidomide), DMSO, or staurosporin (positive control for cell killing), at indicated concentrations. The number of cells was optimized for each cell line. Growth media was refreshed every 5 days. By day 14, medium was removed, cells were washed with PBS, and stained using 500 μL of 0.005% (w/v) crystal violet solution in 25% (v/v) methanol for at least 1 hour at room temperature. Subsequently plates were scanned on an Odyssey CLx Imaging system.

[2] = system: non-synovial control cancer cell lines (293T, A549, G401); assay: Growth of non-synovial control cancer cell lines (crystal violet, colony imaging); type: cell-based; settings: FIGS. 5, 6, 7
Protocol: (§2) Cells were treated with DMSO or the BRD9 degrader, Compound 1, at indicated concentrations, and proliferation was monitored from day 7 to day 14 by measuring confluency over time using an IncuCyte live cell analysis system (FIG. 5). Growth medium and compounds were refreshed every 3-4 days.
(§3) Cells were seeded into 12-well plates and treated with DMSO, 1 μM BRD9 inhibitor, Compound 2 (also known as BI-7273, see Martin et al, J Med Chem. 59(10):4462-4475 (2016); see structure of compound 2 below), or 1 μM BRD9 degrader, Compound 1.
(§4) The number of cells was optimized for each cell line. Growth medium and compounds were refreshed every 3-5 days. SYO1, Yamato, A549, 293T and HS-SY-II cells were fixed and stained at day 11. ASKA cells were fixed and stained at day 23. Staining was done by incubation with crystal violet solution (0.5 g Crystal Violet, 27 ml 37% Formaldehyde, 100 mL 10×PBS, 10 mL Methanol, 863 dH20 to 1 L) for 30 min followed by 3× washes with water and drying the plates for at least 24 h at room temperature. Subsequently plates were scanned on an Odyssey CLx Imaging system (FIG. 6).
(§5) Cells were seeded into 96-well ultra low cluster plate (Costar, #7007) in 200 μL complete media and treated at day 2 with DMSO, Staurosporin, or BRD9 degarder, Compound 1, at indicated doses (FIG. 7). Media and compounds were changed every 5 d and cell colonies were imaged at day 14.

[3] = system: synovial sarcoma cell lines (SYO1, Yamato, HS-SY-II, and ASKA); assay: Growth of synovial sarcoma cell lines (IncuCyte confluency, crystal violet, colony imaging); type: cell-based; settings: 1 μM in crystal violet assay, FIGS. 5, 6, 7
Protocol: as §2, §3, §4, §5

SYO1 cells [4] = assay: Cell cycle analysis, Click-iT Plus EdU Flow Cytometry Assay; type: cell-based; settings: SYO1, 200 nM or 1 μM, 8 or 13 days, compared to DMSO and lenalidomide
Protocol: (§6) SYO1 cells were treated for 8 or 13 days with DMSO, a BRD9 degrader (Compound 1) at 200 nM or 1 μM, or an E3 ligase binder (lenalidomide) at 200 nM. Compounds were refreshed every 5 days. Cell cycle analysis was performed using the Click-iT™ Plus EdU Flow Cytometry Assay (Invitrogen). The apoptosis assay was performed using the Annexin V-FITC Apoptosis Detection Kit (Sigma A9210). Assays were performed according to the manufacturer's protocol.

[5] = system: non-synovial control cancer cell lines (RD, HCT116, and Calu6); assay: Growth of non-synovial control cancer cell lines, crystal violet staining at day 14; type: cell-based; settings: treated daily, FIG. 9
Protocol: as §1

SYO1 cells [6] = assay: Apoptosis assay, Annexin V-FITC Apoptosis Detection Kit; type: cell-based; settings: SYO1, 200 nM or 1 μM, 8 days, compared to DMSO controls
Protocol: as §6

[7] = target: Nanoluciferase-BRD9 fusion protein (3×FLAG-NLuc-BRD9) (Homo sapiens (Human), UniProt Q9H8M2); assay: SYO1 BRD9 NanoLuc degradation assay; type: cell-based; settings: SYO-1 cells expressing 3×FLAG-NLuc-BRD9, 6 hours, 1 μM top dose; read-out: SYO1 BRD9-NanoLuc degradation IC50
Protocol: A stable SYO-1 cell line expressing 3×FLAG-NLuc-BRD9 was generated. On day 0 cells were seeded in 30 μL media into each well of 384-well cell culture plates. The seeding density was 8000 cells/well. […] Subsequently plates were incubated for 6 hours in a standard tissue culture incubator and equilibrated at room temperature for 15 minutes. Nanoluciferase activity was measured by adding 15 μL of freshly prepared Nano-Glo Luciferase Assay Reagent (Promega N1130), shaking the plates for 10 minutes and reading the bioluminescence using an EnVision reader.
The Inhibition % was calculated using the following formula: % Inhibition=100×(LumHC−LumSample)/(LumHC−LumLC). DMSO treated cells are employed as High Control (HC) and 1 μM of a known BRD9 degrader standard treated cells are employed as Low Control (LC).

BRD9 bromodomain = BRD9 bromodomain (Homo sapiens (Human), UniProt Q9H8M2); assay: BRD9 bromodomain TR-FRET competition binding assay; settings: 3 nM Flag-BRD9, 3.75 nM biotinylated ligand, 90 minutes at room temperature
Protocol: Cleaved His tag was removed by purification.
A mixture of biotinylated-ligand and SureLight™ Allophycocyanin-Streptavidin (APC-SA, PerkinElmer AD0201) in 50 mM HEPES (pH 7.4), 50 mM NaCl, 1 mM TCEP (pH 7), 0.01% (v/v) Tween-20, 0.01% (w/v) bovine serum albumin was added to a white 384-well PerkinElmer Proxiplate Plus plate. DMSO or 3-fold serially diluted compounds were then added to the Proxiplate followed by addition of Flag-BRD9. After a 10 minute incubation at room temperature, Eu-W1024 anti-FLAG (PerkinElmer, AD0273) was added.

Row | DC50 [7] [nM] | IC50 (BRD9 bromodomain) [nM] | Structure (SMILES) | also measured
1 |  |  | COc1cc(-c2cn(C)c(=O)c3cnccc23)cc(OC)c1CN(C)CC(=O)NCCOCCOCCNc1cccc2c1C(=O)N(C1CCC(=O)NC1=O)C2=O (stereo not drawn) [Compound 1] | inhibition of cell growth [1]: resulted in inhibition of the growth of the cells; growth inhibition compared with the other agents tested ([1]; all synovial cell lines, versus Compound 2 and lenalidomide): most significant growth inhibition; inhibition of cell growth [2]: does not result in inhibition of the growth; inhibition of cell growth [3]: results in inhibition of the growth of the cells; numbers of cells in the S-phase of the cell cycle (SYO1 cells [4]): reduced numbers of cells in the S-phase; inhibition of cell growth [5]: did not result in inhibition of the growth; numbers of early- and late-apoptotic cells (SYO1 cells [6]): increased numbers of early- and late-apoptotic cells
2 | < 10 | 10 to 100 | COc1cc(OCC(=O)NCCCCCCCCNc2cccc3c2C(=O)N(C2CCC(=O)NC2=O)C3=O)cc(-c2cn(C)c(=O)c3cnccc23)c1 (stereo not drawn) [Compound D6, N-(8-((2-(2,6-dioxopiperidin-3-yl)-1,3-dioxoisoindolin-4-yl)amino)octyl)-2-(3-methoxy-5-(2-methyl-1-oxo-1,2-dihydro-2,7-naphthyridin-4-yl)phenoxy)acetamide] | 
3 | < 10 | < 10 | COc1cc(-c2cn(C)c(=O)c3cnccc23)cc(OC)c1CN(C)CC(=O)NCCCCCCCCCC(=O)N[C@H](C(=O)N1C[C@H](O)C[C@H]1C(=O)NCc1ccc(-c2scnc2C)cc1)C(C)(C)C (stereo in doubt) [Compound D18, (2S,4R)-1-[(2S)-2-[10-[2-([[2,6-dimethoxy-4-(2-methyl-1-oxo-2,7-naphthyridin-4-yl)phenyl]methyl](methyl)amino)acetamido]decanamido]-3,3-dimethylbutanoyl]-4-hydroxy-N-[[4-(4-methyl-1,3-thiazol-5-yl)phenyl]methyl]pyrrolidine-2-carboxamide] | 
4 | 10 to 100 | 10 to 100 | COc1cc(-c2cn(C)c(=O)c3cnccc23)cc(OC)c1CN(C)CC(=O)N(C)CCOCCOCCNc1ccc2c(c1)C(=O)N(C1CCC(=O)NC1=O)C2=O (stereo not drawn) [Compound D16, 2-((2,6-dimethoxy-4-(2-methyl-1-oxo-1,2-dihydro-2,7-naphthyridin-4-yl)benzyl)(methyl)amino)-N-(2-(2-(2-((2-(2,6-dioxopiperidin-3-yl)-1,3-dioxoisoindolin-5-yl)amino)ethoxy)ethoxy)ethyl)-N-methylacetamide] | 
5 | < 10 | < 10 | COc1cc(-c2cn(C)c(=O)c3cnccc23)cc(OC)c1CN(C)C(=O)CCCOc1cccc2c1C(=O)N(C1CCC(=O)NC1=O)C2=O (stereo not drawn) [Compound D11, N-[[2,6-dimethoxy-4-(2-methyl-1-oxo-1,2-dihydro-2,7-naphthyridin-4-yl)phenyl]methyl]-4-[[2-(2,6-dioxopiperidin-3-yl)-1,3-dioxo-2,3-dihydro-1H-isoindol-4-yl]oxy]-N-methylbutanamide] | 
6 |  |  | COc1cc(-c2cn(C)c(=O)c3cnccc23)cc(OC)c1CN(C)C [Compound 2] | inhibition of cell growth [1]: resulted in inhibition of the growth of the cells; inhibition of cell growth [2]: does not result in inhibition of the growth; inhibition of cell growth [3]: results in inhibition of the growth of the cells; inhibition of cell growth [5]: did not result in inhibition of the growth
7 | < 10 | < 10 | COc1cc(-c2cn(C)c(=O)c3cnccc23)cc(OC)c1CN(C)CC(=O)NCCCCCCCCNC(=O)COc1cccc2c1C(=O)N(C1CCC(=O)NC1=O)C2=O (stereo not drawn) [Compound D5, N-[8-[2-([[2,6-dimethoxy-4-(2-methyl-1-oxo-1,2-dihydro-2,7-naphthyridin-4-yl)phenyl]methyl](methyl)amino)acetamido]octyl]-2-[[2-(2,6-dioxopiperidin-3-yl)-1,3-dioxo-2,3-dihydro-1H-isoindol-4-yl]oxy]acetamide] | 
8 | > 1000 | 10 to 100 | COc1cc(-c2cn(C)c(=O)c3cnccc23)cc(OC)c1CN(C)CCOCCOCC(=O)N[C@H](C(=O)N1C[C@H](O)C[C@H]1C(=O)NCc1ccc(-c2scnc2C)cc1)C(C)(C)C [Compound D20] | 
9 | 10 to 100 | 10 to 100 | COc1cc(-c2cn(C)c(=O)c3cnccc23)cc(OC)c1CN(C)CC(=O)N(C)CCCCCNc1cccc2c1C(=O)N(C1CCC(=O)NC1=O)C2=O (stereo not drawn) [Compound D7, 2-([[2,6-dimethoxy-4-(2-methyl-1-oxo-1,2-dihydro-2,7-naphthyridin-4-yl)phenyl]methyl](methyl)amino)-N-(5-[[2-(2,6-dioxopiperidin-3-yl)-1,3-dioxo-2,3-dihydro-1H-isoindol-4-yl]amino]pentyl)-N-methylacetamide formic acid] | 
10 | < 10 | 10 to 100 | COc1cc(-c2cn(C)c(=O)c3cnccc23)cc(OCC(=O)NCCCCCCCCNc2cccc3c2C(=O)N(C2CCC(=O)NC2=O)C3=O)c1OC (stereo not drawn) [Compound D10, 2-(2,3-dimethoxy-5-(2-methyl-1-oxo-1,2-dihydro-2,7-naphthyridin-4-yl)phenoxy)-N-(8-((2-(2,6-dioxopiperidin-3-yl)-1,3-dioxoisoindolin-4-yl)amino)octyl)acetamide] | 
